Reference: patent publication US8802597B2, “Herbicidal pyrimidines” (E I du Pont de Nemours and Company, priority 2003, dated 2014)
Like-named read-outs stand apart in the source and are kept apart here.

Assays:
[1] = system: velvetleaf (Abutilon theophrasti); test: Test A pre/postemergence; type: in vivo; conditions: Abutilon theophrasti, 240 h, read-out: Plant response rating, Velvetleaf; for pest or weed control at 125 g/ha: 125 g ai/ha; for pest or weed control at 500 g/ha: 500 g ai/ha
Outline: (§1)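 Soil: loam blended with sand. Formulation: non-phytotoxic solvent mixture with surfactant. Timing: preemergence soil spray plus concurrent postemergence spray (plants 2–10 cm, 1–2 leaves). Readout: visual injury versus untreated controls at ~10 days, 0–100.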

[2] = system: giant foxtail (Setaria faberi); test: Test A pre/postemergence; type: in vivo; conditions: Setaria faberi, 240 h, read-out: Plant response rating, Foxtail, Giant; for pest or weed control at 125 g/ha: 125 g ai/ha; for pest or weed control at 500 g/ha: 500 g ai/ha
Outline: as §1

[3] = system: crabgrass (Digitaria sanguinalis); test: Test A pre/postemergence; type: in vivo; conditions: Digitaria sanguinalis, 240 h, read-out: Plant response rating, Crabgrass; for pest or weed control at 125 g/ha: 125 g ai/ha; for pest or weed control at 500 g/ha: 500 g ai/ha
Outline: as §1

[4] = system: redroot pigweed (Amaranthus retroflexus); test: Test A pre/postemergence; type: in vivo; conditions: Amaranthus retroflexus, 240 h, read-out: Plant response rating, Pigweed; for pest or weed control at 125 g/ha: 125 g ai/ha; for pest or weed control at 500 g/ha: 500 g ai/ha
Outline: as §1

[5] = system: barnyardgrass (Echinochloa crus-galli); test: Test A pre/postemergence; type: in vivo; conditions: Echinochloa crus-galli, 240 h, read-out: Plant response rating, Barnyardgrass; for pest or weed control at 125 g/ha: 125 g ai/ha; for pest or weed control at 500 g/ha: 500 g ai/ha
Outline: as §1

[6] = system: morningglory (Ipomoea spp.); test: Test A pre/postemergence; type: in vivo; conditions: Ipomoea, 240 h, read-out: Plant response rating, Morningglory; for pest or weed control at 125 g/ha: 125 g ai/ha; for pest or weed control at 500 g/ha: 500 g ai/ha
Outline: as §1

[7] = system: wheat (TRZAW; Triticum aestivum); test: Test K postemergence; type: in vivo; conditions: 16 g a.i./ha, 15 days
Protocol: (§2) Seeds of plant species selected from sulfonylurea herbicide-susceptible (SU-susceptible) and sulfonylurea herbicide-resistant (SU-resistant) catchweed bedstraw (GALAP; Galium aparine) and wheat (TRZAW; Triticum aestivum) were treated with postemergence applications of test chemicals formulated in a non-phytotoxic solvent mixture which included a surfactant. Plants were treated at the 2-3 leaf stage and 2 whorl stage for wheat and catchweed bedstraw, respectively. Treated plants and controls were maintained in a controlled growth environment for 15 days after which time all species were compared to controls and visually evaluated. Plant response ratings, summarized in Table K, are based on a scale of 0 to 100 where 0 is no effect and 100 is complete control. A dash (-) response means no test result.

[8] = system: sulfonylurea herbicide-resistant (SU-resistant) catchweed bedstraw (GALAP; Galium aparine); test: Test K postemergence; type: in vivo; conditions: 16 g a.i./ha, 15 days
Protocol: as §2

[9] = system: sulfonylurea herbicide-susceptible (SU-susceptible) catchweed bedstraw (GALAP; Galium aparine); test: Test K postemergence; type: in vivo; conditions: 16 g a.i./ha, 15 days
Protocol: as §2

[10] = post-emergence, Postemergence, 0 to 100 scale (0 no effect, 100 complete control)
[11] = pre-emergence, Preemergence, 0 to 100 scale where 0 is no effect and 100 is complete control, approximately ten days

SMILES: COC(=O)c1nc(C(C)C)nc(N)c1Cl [Compound 110]
- pest or weed control at 125 g/ha [1, 10]: 40%
- pest or weed control at 500 g/ha [1, 10]: 65%
- pest or weed control at 125 g/ha [1, 11]: 25%
- pest or weed control at 500 g/ha [1, 11]: 35%
- pest or weed control at 125 g/ha [2, 10]: 0%
- pest or weed control at 500 g/ha [2, 10]: 5%
- pest or weed control at 125 g/ha [2, 11]: 0%
- pest or weed control at 500 g/ha [2, 11]: 0%
- pest or weed control at 125 g/ha [3, 10]: 0%
- pest or weed control at 500 g/ha [3, 10]: 10%
- pest or weed control at 125 g/ha [3, 11]: 0%
- pest or weed control at 500 g/ha [3, 11]: 15%
- pest or weed control at 125 g/ha [4, 10]: 55%
- pest or weed control at 500 g/ha [4, 10]: 85%
- pest or weed control at 125 g/ha [4, 11]: 40%
- pest or weed control at 500 g/ha [4, 11]: 65%
- pest or weed control at 125 g/ha [5, 10]: 0%
- pest or weed control at 500 g/ha [5, 10]: 10%
- pest or weed control at 125 g/ha [5, 11]: 0%
- pest or weed control at 500 g/ha [5, 11]: 15%
- pest or weed control at 125 g/ha [6, 10]: 70%
- pest or weed control at 500 g/ha [6, 10]: 85%
- pest or weed control at 125 g/ha [6, 11]: 0%
- pest or weed control at 500 g/ha [6, 11]: 90%
- melting point: 100 to 104 °C (dec.)

SMILES: NC(=O)c1nc(C2CC2)nc(N)c1Cl [Compound 85]
- pest or weed control at 125 g/ha [1, 10]: 25%
- pest or weed control at 500 g/ha [1, 10]: 60%
- pest or weed control at 125 g/ha [1, 11]: 0%
- pest or weed control at 500 g/ha [1, 11]: 10%
- pest or weed control at 125 g/ha [2, 10]: 0%
- pest or weed control at 500 g/ha [2, 10]: 0%
- pest or weed control at 125 g/ha [2, 11]: 0%
- pest or weed control at 500 g/ha [2, 11]: 0%
- pest or weed control at 125 g/ha [3, 10]: 0%
- pest or weed control at 500 g/ha [3, 10]: 0%
- pest or weed control at 125 g/ha [3, 11]: 0%
- pest or weed control at 500 g/ha [3, 11]: 5%
- pest or weed control at 125 g/ha [4, 10]: 75%
- pest or weed control at 500 g/ha [4, 10]: 90%
- pest or weed control at 125 g/ha [4, 11]: 50%
- pest or weed control at 500 g/ha [4, 11]: 60%
- pest or weed control at 125 g/ha [5, 10]: 0%
- pest or weed control at 500 g/ha [5, 10]: 0%
- pest or weed control at 125 g/ha [5, 11]: 0%
- pest or weed control at 500 g/ha [5, 11]: 0%
- pest or weed control at 125 g/ha [6, 10]: 20%
- pest or weed control at 500 g/ha [6, 10]: 75%
- pest or weed control at 125 g/ha [6, 11]: 0%
- pest or weed control at 500 g/ha [6, 11]: 20%
- melting point: 232 to 236 °C

SMILES: COc1nc(C)nc(NC(=O)NS(=O)(=O)c2ccccc2Cl)n1 [Chlorsulfuron, chlorsulfuron, reference compound]
- Plant response rating (0 to 100 scale) [7]: 20
- Plant response rating (0 to 100 scale) [8]: 5
- Plant response rating (0 to 100 scale) [9]: 100

SMILES: CCOC(=O)c1nc(C(C)C)nc(N)c1Cl [Compound 108]
- pest or weed control at 125 g/ha [1, 10]: 35%
- pest or weed control at 500 g/ha [1, 10]: 65%
- pest or weed control at 125 g/ha [1, 11]: 10%
- pest or weed control at 500 g/ha [1, 11]: 50%
- pest or weed control at 125 g/ha [2, 10]: 0%
- pest or weed control at 500 g/ha [2, 10]: 10%
- pest or weed control at 125 g/ha [2, 11]: 0%
- pest or weed control at 500 g/ha [2, 11]: 0%
- pest or weed control at 125 g/ha [3, 10]: 0%
- pest or weed control at 500 g/ha [3, 10]: 0%
- pest or weed control at 125 g/ha [3, 11]: 0%
- pest or weed control at 500 g/ha [3, 11]: 20%
- pest or weed control at 125 g/ha [4, 10]: 50%
- pest or weed control at 500 g/ha [4, 10]: 85%
- pest or weed control at 125 g/ha [4, 11]: 55%
- pest or weed control at 500 g/ha [4, 11]: 75%
- pest or weed control at 125 g/ha [5, 10]: 0%
- pest or weed control at 500 g/ha [5, 10]: 5%
- pest or weed control at 125 g/ha [5, 11]: 10%
- pest or weed control at 500 g/ha [5, 11]: 15%
- pest or weed control at 125 g/ha [6, 10]: 70%
- pest or weed control at 500 g/ha [6, 10]: 90%
- pest or weed control at 125 g/ha [6, 11]: 0%
- pest or weed control at 500 g/ha [6, 11]: 90%
- melting point: 102 to 103 °C
